Tested on: 485176-168-R4-J1-PDC complex spheroid growth
Assay: Anticancer human tumor 485176-168-R4-J1-PDC patient-derived pancreatic adenocarcinoma cell line growth inhibition [RAS]
Conditions: for IC50: curve of first compound; for viability, T/C: stronger effect = lower value
Outline: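 Tumour cells grown as complex spheroids with HUVEC endothelial cells and mesenchymal stem cells, treated with RAS pathway inhibitor combinations. Each agent spans half-log steps from near clinical Cmax, or 10 microM where Cmax is unknown.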

[1] = second compound 0.000949 µM, first compound 0.0316 µM
[2] = second compound 0.000949 µM, first compound 0.1 µM
[3] = second compound 0.000949 µM, first compound 0.316 µM
[4] = second compound 0.000949 µM, first compound 1 µM
[5] = second compound 0.003 µM, first compound 0.0316 µM
[6] = second compound 0.003 µM, first compound 0.1 µM
[7] = second compound 0.003 µM, first compound 0.316 µM
[8] = second compound 0.003 µM, first compound 1 µM
[9] = second compound 0.00949 µM, first compound 0.0316 µM
[10] = second compound 0.00949 µM, first compound 0.1 µM
[11] = second compound 0.00949 µM, first compound 0.316 µM
[12] = second compound 0.00949 µM, first compound 1 µM
[13] = second compound 0.03 µM, first compound 0.0316 µM
[14] = second compound 0.03 µM, first compound 0.1 µM
[15] = second compound 0.03 µM, first compound 0.316 µM
[16] = second compound 0.03 µM, first compound 1 µM
[17] = second compound 0.0949 µM, first compound 0.0316 µM
[18] = second compound 0.0949 µM, first compound 0.1 µM
[19] = second compound 0.0949 µM, first compound 0.316 µM
[20] = second compound 0.0949 µM, first compound 1 µM
[21] = second compound 0.3 µM, first compound 0.0316 µM
[22] = second compound 0.3 µM, first compound 0.1 µM
[23] = second compound 0.3 µM, first compound 0.316 µM
[24] = second compound 0.3 µM, first compound 1 µM
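Further: spheroids exposed to compounds for seven days before readout.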
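Wherever viability, T/C is given: luminescence viability expressed relative to DMSO vehicle wells set as 100%.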

## C=CC(=O)N1CCN(c2nc(OCC3CCCN3C)nc3c(F)c(-c4nc(N)cc(C)c4C(F)(F)F)c(Cl)cc23)C(C)C1 (centres undefined) + CCn1c(-c2cc(N3CCN(C)CC3)cnc2C(C)OC)c2c3cc(ccc31)-c1csc(n1)CC(NC(=O)C1CC1C)C(=O)N1CCCC(N1)C(=O)OCC(C)(C)C2
Second compound 0.000949 µM
  IC50: > 1000 nM
Second compound 0.003 µM
  IC50: > 1000 nM
Second compound 0.00949 µM
  IC50: > 1000 nM
Second compound 0.03 µM
  IC50: > 1000 nM
Second compound 0.0949 µM
  IC50: > 1000 nM
Second compound 0.3 µM
  IC50: > 1000 nM
Second compound 0.000949 µM, first compound 0.00316 µM
  viability, T/C: 95.4%
Second compound 0.000949 µM, first compound 0.01 µM
  viability, T/C: 86.6%
[1]
  viability, T/C: 100%
[2]
  viability, T/C: 109%
[3]
  viability, T/C: 114%
[4]
  viability, T/C: 99%
Second compound 0.003 µM, first compound 0.00316 µM
  viability, T/C: 85.3%
Second compound 0.003 µM, first compound 0.01 µM
  viability, T/C: 89.7%
[5]
  viability, T/C: 87.4%
[6]
  viability, T/C: 103%
[7]
  viability, T/C: 101%
[8]
  viability, T/C: 97.2%
Second compound 0.00949 µM, first compound 0.00316 µM
  viability, T/C: 89.3%
Second compound 0.00949 µM, first compound 0.01 µM
  viability, T/C: 88.5%
[9]
  viability, T/C: 96.5%
[10]
  viability, T/C: 108%
[11]
  viability, T/C: 91.7%
[12]
  viability, T/C: 114%
Second compound 0.03 µM, first compound 0.00316 µM
  viability, T/C: 95.5%
Second compound 0.03 µM, first compound 0.01 µM
  viability, T/C: 97%
[13]
  viability, T/C: 77.2%
[14]
  viability, T/C: 79.7%
[15]
  viability, T/C: 87.6%
[16]
  viability, T/C: 87.8%
Second compound 0.0949 µM, first compound 0.00316 µM
  viability, T/C: 84.4%
Second compound 0.0949 µM, first compound 0.01 µM
  viability, T/C: 105%
[17]
  viability, T/C: 80.4%
[18]
  viability, T/C: 80.7%
[19]
  viability, T/C: 76.1%
[20]
  viability, T/C: 81.6%
Second compound 0.3 µM, first compound 0.00316 µM
  viability, T/C: 72.9%
Second compound 0.3 µM, first compound 0.01 µM
  viability, T/C: 72.8%
[21]
  viability, T/C: 82%
[22]
  viability, T/C: 76.6%
[23]
  viability, T/C: 91.8%
[24]
  viability, T/C: 69.3%

## CC(C)NCC(C(=O)N1CCN(c2ncnc3c2C(C)CC3O)CC1)c1ccc(Cl)cc1 (centres undefined) + CCn1c(-c2cc(N3CCN(C)CC3)cnc2C(C)OC)c2c3cc(ccc31)-c1csc(n1)CC(NC(=O)C1CC1C)C(=O)N1CCCC(N1)C(=O)OCC(C)(C)C2
Second compound 0.000949 µM
  IC50: 2330 nM
Second compound 0.003 µM
  IC50: 3710 nM
Second compound 0.00949 µM
  IC50: 1650 nM
Second compound 0.03 µM
  IC50: 847 nM
Second compound 0.0949 µM
  IC50: 721 nM
Second compound 0.3 µM
  IC50: 790 nM
[1]
  viability, T/C: 116%
[2]
  viability, T/C: 99.5%
[3]
  viability, T/C: 78.7%
[4]
  viability, T/C: 64.8%
Second compound 0.000949 µM, first compound 3.16 µM
  viability, T/C: 43.6%
Second compound 0.000949 µM, first compound 10 µM
  viability, T/C: 33%
[5]
  viability, T/C: 82.2%
[6]
  viability, T/C: 101%
[7]
  viability, T/C: 74.3%
[8]
  viability, T/C: 65%
Second compound 0.003 µM, first compound 3.16 µM
  viability, T/C: 55.1%
Second compound 0.003 µM, first compound 10 µM
  viability, T/C: 38.8%
[9]
  viability, T/C: 97.9%
[10]
  viability, T/C: 79.7%
[11]
  viability, T/C: 82.4%
[12]
  viability, T/C: 56.8%
Second compound 0.00949 µM, first compound 3.16 µM
  viability, T/C: 38.7%
Second compound 0.00949 µM, first compound 10 µM
  viability, T/C: 32.3%
[13]
  viability, T/C: 94.7%
[14]
  viability, T/C: 73.8%
[15]
  viability, T/C: 81.2%
[16]
  viability, T/C: 44.4%
Second compound 0.03 µM, first compound 3.16 µM
  viability, T/C: 40.5%
Second compound 0.03 µM, first compound 10 µM
  viability, T/C: 31.7%
[17]
  viability, T/C: 81.3%
[18]
  viability, T/C: 67.9%
[19]
  viability, T/C: 70.3%
[20]
  viability, T/C: 41.3%
Second compound 0.0949 µM, first compound 3.16 µM
  viability, T/C: 35.5%
Second compound 0.0949 µM, first compound 10 µM
  viability, T/C: 26.8%
[21]
  viability, T/C: 72.2%
[22]
  viability, T/C: 72.1%
[23]
  viability, T/C: 57.5%
[24]
  viability, T/C: 46.4%
Second compound 0.3 µM, first compound 3.16 µM
  viability, T/C: 38.4%
Second compound 0.3 µM, first compound 10 µM
  viability, T/C: 26.8%

Reference: PubChem BioAssay AID2060906 (Molecular Pharmacology Branch, DTP, NCI, 2025)
